{"source": "patent US20240076742A1", "about": "“METHODS FOR IMPROVED CANCER TREATMENT” (CELLPHENOMICS GMBH, priority 2020, published 2024)", "system": "colorectal cancer tumor cells with the SMAD4^R361H mutation", "test": "Cell viability (CellTiterGlo) of patient-derived colorectal tumor cells in Matrigel, SMAD4 R361H", "type": "cell-based", "settings": "Homo sapiens, 96 h, SMAD4^R361H loss-of-function mutation, 4-day treatment, FIG. 4, read-out: trametinib concentration at which tumor cell viability decreases below the IC50", "method": "The mean inhibitory concentration, further referred to as IC50, is the concentration of an inhibitor at which half-maximal inhibition is observed. […] For the experiment, the biological tumor samples were dissociated by incubation with TrypLE Express solution (ThermoFisher Scientific, Germany) and 1.5×10^3 cells per well were seeded in four replicates in Matrigel and overlaid with culture medium. After 3-day incubation at 37° C. in 5% CO2, medium was removed and fresh medium containing trametinib was added. Trametinib was tested in four 1:5 dilution concentrations. Following concentrations were tested: 0.1 μg/ml, 0.02 μg/ml, 0.004 μg/ml and 0.0008 μg/ml. Cells treated with DMSO were used as control while Matrigel only was used for background readout. Staurosporine was used as internal positive control. After 4-day treatment, cell viability was determined by CellTiterGlo® assay. Cell plating, treatment and testing were handled by Biomek FXP Liquid Handler (Beckman Coulter).", "data": [{"molecule": "CC(=O)Nc1cccc(-n2c(=O)n(C3CC3)c(=O)c3c(Nc4ccc(I)cc4F)n(C)c(=O)c(C)c32)c1", "note": "[trametinib, N-(3-{3-Cyclopropyl-5-[(2-fluor-4-iodphenyl)amino]-6,8-dimethyl-2,4,7-trioxo-3,4,6,7-tetrahydropyrido[4,3-d]pyrimidin-1(2H)-yl}phenyl)acetamid]", "values": [{"measurement": "IC50", "value": 6, "unit": "ng/mL"}]}]}
